In ChEMBL document CHEMBL1121381, “Beta-adrenergic blocking agents. 19. 1-Phenyl-2-[[(substituted-amido)alkyl]amino]ethanols” (1980):

Legend:
Felis catus = species: Felis catus; assay: Percentage inhibition of depressor response in cat was determined; assay type: functional; parameters: concentration or dose not given beside the values
[1] = molecular target: Adrenergic receptor beta (Rattus norvegicus) (UniProt P18090+P10608+P26255); assay: In vivo beta-adrenoceptor blocking potency measured by blockade of the isoproterenol tachycardia response in rat; assay type: functional, organism-based

SMILES	ED50 [1] [mg/kg]	Inhibition (Felis catus) [%]
CC(C)C(=O)NCC(C)(C)NCC(O)c1ccccc1 (stereo unspecified)	0.27	9
O=C(COc1ccccc1)NCCNCC(O)c1ccccc1 (stereo unspecified)	1	
C=CCOc1ccccc1OCC(=O)NCCNCC(O)c1ccccc1 (stereo unspecified)	5.8	
O=C(Cc1ccccc1)NCCNCC(O)c1ccccc1 (stereo unspecified)	0.38	6
CCCC(=O)NCCNCC(O)c1ccccc1 (stereo unspecified)	0.45	0
O=C(COc1ccc(Cl)cc1)NCCNCC(O)c1ccccc1 (stereo unspecified)	2.5	36
CC(CNCC(O)c1ccccc1)NC(=O)Cc1ccccc1 (stereo unspecified)	8	
COc1ccc(CC(=O)NCCNCC(O)c2ccccc2)cc1 (stereo unspecified)	0.32	24
CC(=O)NCCNCC(O)c1ccccc1 (stereo unspecified)	0.08	50
O=S(=O)(Cc1ccccc1)NCCNCC(O)c1ccccc1 (stereo unspecified)	2	0
CCCS(=O)(=O)NCCNCC(O)c1ccccc1 (stereo unspecified)	0.5	0
CC(C)C(=O)NCCNCC(O)c1ccc(NS(C)(=O)=O)cc1 (stereo unspecified)	5.2	
CC(C)(CNC(=O)Cc1ccccc1)NCC(O)c1ccccc1.O=C(O)/C=C/C(=O)O (stereo unspecified)	0.1	28
CC(C)NCC(O)c1ccc(NS(C)(=O)=O)cc1 (stereo unspecified) [SOTALOL]		85
COc1ccc(CC(=O)NCCNCC(O)c2ccccc2)cc1OC (stereo unspecified)	7	
CC(C)C(=O)NCCNCC(O)c1ccc(Cl)cc1Cl (stereo unspecified)	0.75	

SMILES	ED50 [1] [mg/kg]	Inhibition (Felis catus) [%]
O=S(=O)(NCCNCC(O)c1ccccc1)c1ccccc1 (stereo unspecified)	1	27
COc1ccc(C(O)CNCCNC(=O)C(C)C)cc1 (stereo unspecified)	0.3	0
CC(C)C(=O)NCCNCC(O)c1ccccc1 (stereo unspecified)	0.7	27
CC(C)C(=O)NCCNCC(O)c1ccc(N)cc1 (stereo unspecified)	0.6	69
C=CCNC(=O)NCCNCC(O)c1ccccc1 (stereo unspecified)	0.26	0
CCOC(=O)NCCNCC(O)c1ccccc1 (stereo unspecified)	2.8	
CC(=O)Nc1ccc(OCC(O)CNC(C)C)cc1 (stereo unspecified) [PRACTOLOL]		8
CCC(=O)NCCNCC(O)c1ccccc1 (stereo unspecified)	0.07	46
O=C(NCCNCC(O)c1ccccc1)c1ccccc1 (stereo unspecified)	10	
CC(=O)c1ccc(OCC(=O)NCCNCC(O)c2ccccc2)cc1 (stereo unspecified)	0.6	
CCC(C)NCC(O)c1ccc2c(c1)CCCC2.Cl (stereo unspecified)		47
CCC(=O)NCCNCC(O)c1ccc(C)cc1 (stereo unspecified)	0.5	
O=C(Cc1ccccc1)NCCNCC(O)c1ccccc1Cl.O=C(O)/C=C/C(=O)O (stereo unspecified)	0.6	45
O=C(Cc1ccc(Cl)cc1)NCCNCC(O)c1ccccc1 (stereo unspecified)	0.7	3
CC(C)C(=O)NCCNCC(O)c1ccc(Br)cc1 (stereo unspecified)	1.6	

The next lines start with results.

ED50 [1] [mg/kg]	SMILES	Inhibition (Felis catus) [%]
10	CC(C)C(=O)NCCNCC(O)c1ccc([N+](=O)[O-])cc1 (stereo unspecified)	0
0.5	CCCCNC(=O)NCCNCC(O)c1ccccc1 (stereo unspecified)	54
1.2	CC(=O)Nc1ccc(CC(=O)NCCNCC(O)c2ccccc2)cc1 (stereo unspecified)	
0.4	COCC(=O)NCCNCC(O)c1ccccc1 (stereo unspecified)	44
1.4	CCCCCC(=O)NCCNCC(O)c1ccccc1 (stereo unspecified)	8
0.1	O=C(NCCNCC(O)c1ccccc1)C(F)(F)F (stereo unspecified)	
0.3	O=C(CO)NCCNCC(O)c1ccccc1 (stereo unspecified)	
0.11	CC(CNC(=O)C1CCCCC1)NCC(O)c1ccccc1 (stereo unspecified)	19
2.5	O=[N+]([O-])c1ccccc1S(=O)(=O)NCCNCC(O)c1ccccc1 (stereo unspecified)	23
0.72	CC(C)CC(=O)NCCNCC(O)c1ccccc1 (stereo unspecified)	25
0.03	CC(CNC(=O)Cc1ccccc1Cl)NCC(O)c1ccccc1 (stereo unspecified)	19
5.2	NC(=O)c1ccccc1OCC(=O)NCCNCC(O)c1ccccc1 (stereo unspecified)	
9	O=C(NCCNCC(O)c1ccccc1)c1ccc(O)cc1 (stereo unspecified)	10
0.7	N#Cc1ccc(OCC(=O)NCCNCC(O)c2ccccc2)cc1 (stereo unspecified)	
2.9	O=C(NCCNCC(O)c1ccccc1)Nc1ccccc1 (stereo unspecified)	0
2.5	Nc1ccc(CC(=O)NCCNCC(O)c2ccccc2)cc1 (stereo unspecified)	
0.42	O=C(NCCNCC(O)c1ccccc1)C1CCCC1 (stereo unspecified)	8
0.1	CC(CNC(=O)Cc1ccccc1)NCC(O)c1ccccc1 (stereo unspecified)	36
0.16	Cl.O=C(NCCNCC(O)c1ccccc1)C1CCCCC1 (stereo unspecified)	0
1.6	CC(O)c1ccc(OCC(=O)NCCNCC(O)c2ccccc2)cc1 (stereo unspecified)	
